Where “and” joins values, the source holds several entries; their conditions need not be identical. Identical values can stand only once. Like-named read-outs stand apart in the source and are kept apart here.
What was measured:
[1] = system: ovulation in rats; experiment: Inhibition of ovulation in rats, subcutaneous administration; format: in vivo, rat; conditions: for inhibition of ovulation: 40 hrs before anticipated ovulation
Procedure: (§1) Biological Assays. The peptides were assayed for activity to inhibit ovulation in rats, as described [J. Humphries, Y.-P. Wan, K. Folkers and C. Y. Bowers; J. Med. Chem. 21, 120-123 (1978)]. The procedure for assay when the antagonist is administered orally is the same except for the route of administration.

[2] = system: ovulation in the rat; experiment: Assays of antagonists for oral activity (inhibition of ovulation in the rat); format: in vivo
Procedure: as §1
Analogs I, XI and XII were also tested by the oral route of administration for inhibition of ovulation in the rat, since the projected human application would be by oral administration. The data in Table 3 resulted from the administration at noon. When the administration is at 2:30 PM, effectiveness is reduced, presumably because of the LH surge. Analog I caused 100% AOA at a 2 mg dosage with administration at noon and 71% AOA/2 mg and 50% AOA/1 mg by administration at 2:30 PM Nekola et al. [Science 218, 160-162 (1982)] have reported on the oral activity of I under diverse conditions.

[3] = system: ovulation in rats; conditions: data of Coy et al., cited from earlier work

## [N--Ac--(pCl--D-Phe)^1,2,D-3-Pal^3,6 ]--LHRH [Analog X]
[1]; dose 1.0 μg
  % AOA (% inhibition of ovulation in rats): 17%
  Rats ovu./No. rats: 5/6
[1]; dose 3.0 μg
  % AOA (% inhibition of ovulation in rats): 86%
  Rats ovu./No. rats: 1/7

## [N--Ac--(pCl--D-Phe)^1,2,D-4-Pal^3,6,D-Ala^10 ]--LHRH [Analog VI]
[1]; dose 6.0 μg
  % AOA (% inhibition of ovulation in rats): 63% and 62.5%
  Rats ovu./No. rats: 3/8

## [N--Ac--(pCl--D-Phe)^1,2,D-3-Pal^3,D-Trp^6,D-Ala^10 ]--LHRH [Analog VIII]
[1]; dose 1.0 μg
  Rats ovu./No. rats: 10/10

## [N--Ac--(pCl--D-Phe)^1,2,D-3-Pal^3,6,D-Ala^10 ]--LHRH [Analog V]
[1]; dose 1.0 μg
  % AOA (% inhibition of ovulation in rats): 50%
  Rats ovu./No. rats: 5/10
[1]; dose 3.0 μg
  % AOA (% inhibition of ovulation in rats): 100%
  Rats ovu./No. rats: 0/7

## [N--Ac--(pCl--D-Phe)^1,2,D-3-Pal^3,D-Arg^6,D-Abu^10 ]--LHRH [Analog IX]
[1]; dose 1.0 μg
  % AOA (% inhibition of ovulation in rats): 10%
  Rats ovu./No. rats: 9/10

## [N--Ac--D-2-Nal^1,pCl--D-Phe^2,D-3-Pal^3,D-Arg^6, D-Ala^10 ]--LHRH [Analog XI]
[2]; 250 μg, administered at noon
  % AOA: 10%
  No. Ova.: 13.0 ± 1.8
  Rats Ovu./No. Rats: 9/10
[2]; 500 μg, administered at noon
  % AOA: 56%
  No. Ova.: 6.1 ± 2.5
  Rats Ovu./No. Rats: 4/9
[1]; 10 μg
  inhibition of ovulation: 100%
[1]; 30 μg
  inhibition of ovulation: 100%
[1]; 100 μg
  inhibition of ovulation: 100%
[1]; dose 0.25 μg
  % AOA (% inhibition of ovulation in rats): 57%
  Rats ovu./No. rats: 3/7
[1]; dose 0.5 μg
  % AOA (% inhibition of ovulation in rats): 100%
  Rats ovu./No. rats: 0/9

## [N--Ac--(pCl--D-Phe)^1,2,D-4-Pal^3,D-Arg^6,D-Ala^10 ]--LHRH [Analog IV]
[1]; dose 0.5 μg
  % AOA (% inhibition of ovulation in rats): 14%
  Rats ovu./No. rats: 6/7
[1]; dose 6.0 μg
  % AOA (% inhibition of ovulation in rats): 33%
  Rats ovu./No. rats: 6/9

## [N--Ac--(pCl--D-Phe)^1,2,D-Trp^3,D-Arg^6,D-Ala^10 ]--LHRH [Analog I, reference compound]
[2]; 1 mg, administered at 2:30 PM
  % AOA: 50%
[2]; 2 mg, administered at 2:30 PM
  % AOA: 71%
[2]; 2 mg, administered at noon
  % AOA: 100%
  No. Ova.: 0
  Rats Ovu./No. Rats: 0/8
[3]; dose 0.75 μg
  % AOA (% inhibition of ovulation in rats): 40%
  Rats ovu./No. rats: 6/10
[3]; dose 1.5 μg
  % AOA (% inhibition of ovulation in rats): 100%
  Rats ovu./No. rats: 0/10
[1]; dose 1.0 μg
  % AOA (% inhibition of ovulation in rats): 83%
  Rats ovu./No. rats: 1/6

## [N--Ac-- (pCl--D-Phe)^1,2,D-Trp^3,D-3-Pal^6,D-Ala^10 ]--LHRH [Analog VII]
[1]; dose 2.0 μg
  % AOA (% inhibition of ovulation in rats): 13%

## [N--Ac--3,4-diCl--D-Phe^1,pCl--D-Phehu 2,D-3-Pal^3,D-Arg^7, D-Ala^10 ]--LHRH [Analog XII]
[2]; 250 μg, administered at noon
  No. Ova.: 12.2 ± 1.0
  Rats Ovu./No. Rats: 5/5
[2]; 500 μg, administered at noon
  % AOA: 63%
  No. Ova.: 5.6 ± 2.7
  Rats Ovu./No. Rats: 3/8
[1]; dose 0.25 μg
  Rats ovu./No. rats: 9/9
[1]; dose 0.5 μg
  % AOA (% inhibition of ovulation in rats): 82%
  Rats ovu./No. rats: 9/11

## [N--Ac--(pCl--D-Phe)^1,2,D-2-Pal^3,D-Arg^6,D-Ala^10 ]--LHRH [Analog III]
[1]; dose 1.0 μg
  % AOA (% inhibition of ovulation in rats): 29%
  Rats ovu./No. rats: 5/7

## [N--Ac--(pCl--D-Phe)^1,2,D-3-Pal^3,D-Arg^6,D-Ala^10 ]--LHRH [Analog II]
[1]; dose 0.5 μg
  % AOA (% inhibition of ovulation in rats): 58%
  Rats ovu./No. rats: 8/19
[1]; dose 1.0 μg
  % AOA (% inhibition of ovulation in rats): 78%
  Rats ovu./No. rats: 3/14

Source: patent US4504414A, “Synthetic pyridyl-alanyl decapeptides having antiovulatory activity” (Board of Regents, The University of Texas System, priority 1983, dated 1985)
